Reference: PMC5594551, “Heterogeneous drug penetrance of veliparib and carboplatin measured in triple negative breast tumors” (Breast Cancer Research : BCR, 2017)

Tested on: nuclear DNA
Assay: Platinum adducts by ICP-MS in PBMCs from patients (carboplatin + talazoparib phase 1)
Format: in vivo
Protocol: Carboplatin and platinum adducts were determined in a limited number of blood samples from a previously presented phase 1 clinical trial (NCT02358200). […] In the case of grade 3 or grade 4 toxicity, carboplatin and/or talazoparib doses were held until below grade 1 and resumed at a lower dose level. Blood samples were obtained from a limited number of patients during cycle 1 day 1 (prior to talazoparib dosing) and cycle 2 day 1 pre-dose and up to 24 h post dose, and PBMCs were derived at day 15 post dose, DNA was extracted as described in Additional file 1d and platinum adducts were quantified by ICP-MS (Additional file 1b).
The platinum adduct formation in PBMCs in 19 patients was linked to carboplatin concentrations in plasma using the Eq 1. […] In this model, we tested the hypothesis that PARPi interact with platinum formation. […] The formation of adducts correlated with the number of lymphocytes (P < 0.0001) and the gBRCA mutation status (P < 0.0001). […]
b). Technical aspects of the ICP-MS method development.
PBMCs were extracted from whole blood using by centrifugation. Lysis of red blood cells was performed as needed, then PMBCs were washed and resuspended in A limited number of 5-15 mL heparinised or EDTA whole blood samples from the PK study talazoparib/carboplatin phase 1 study were included. Following centrifugation for 15 min at 1,000 g, plasma was extracted and the PBS was added to a total volume of 9.5 ml to the remaing fraction. PMBCS were extracted using density-gradient centrifugation with Ficoll-Paque Plus® (Pharmacia, Uppsala, Sweden) at room temperature for 20 min at 400 g. PBMCs were washed twice with ice-cold PBS and centrifuged at 800 G for 5 minustes at 4 °C. Cells were counted and ther resuspended in 1 mL buffer containing 10 mmol L−1 Tris- HCl, 2.3% (w/v) NaCl, and 2 mmol L−1 EDTA disodium salt at pH 7.3.
DNA extraction procedure:
The DNA extraction was based on previous publications. 4 In short, 44 μL 1 mol L −1 NH4HCO3, 20 μL 20% (w/v) SDS, and 6 μL 1% (w/v) proteinase K solution were added successively, and incubated for 24hours using a thermomixer. After the digestion was complete, 146 μL saturated 6 mol L−1 NaCl was added to each tube and the tubes were shaken vigorously to precipitate proteins. The tubes were centrifuged for 10min at 2000 g and the supernatant containing the DNA was transferred to another tube. Subsequently, the supernatant was shaken, centrifuged, and transferred to another tube. Following this, 1.5ml absolute ethanol was added to precipitate the DNA and centrifuged from 30 minutes at 21 Kg at 4°C. The DNA was washed twice with 75% ethanol and was subsequently dissolved in 30 μL water. DNA concentrations were analyzed by measuring the absorbance at 260 nm using Nanodrop 1000 spectophotometer (NanoDrop).
Carboplatin adduct quantification:
The quantity of the carboplatin-adducts per mg DNA was quantified (Figure S8) using a previously validated […]
Figure S8: Example graph of mass spectrum of platinum in DNA extraction by ICP-MS.
(1 picture or pasted object on this page, not shown here)
Supplementary Table 2: PK patients estimates carboplatin and platinum adducts Structural model PK Estimat RS
Inter-individual variability on Platinum adduct formation (RPT) 317% proportional residual error plasma carboplatin 28% 26 […]
proportional residual error adduct formation 110% 6%
Platinum adduct formation:
CL=clearance, V=volume of distribution, KA= rate of absorption, RPT= ratio of carboplatin adduct formation, KPT= rate of carboplatin adduct formation, gBRCA = germline BRCA carrier […]
(also on this page, place not known: ( )adductsC−×× plasmaCRPT KPT=dt dCadducts)

## N.N.O=C([O-])C1(C(=O)[O-])CCC1.[Pt+2] [carboplatin]
19 patients
  RPT, ratio of adducts compared to plasma concentration: 0.5%
PBMCs from patients, ICP-MS
  Median conc. (RSE %), carboplatin adducts: 0.0552 (30%) μmol/g DNA
Five gBRCA carriers
  Ratio of adducts in PBMCs/plasma concentration: 0.64%
Nine non-carriers
  Ratio of adducts in PBMCs/plasma concentration: 0.29%
non-carriers, Supplementary Table 2
  RPT (%) carboplatin adducts, model estimate: 1.20%
Patient PBMC samples
  Median platinum adducts: 55.2 nmol/g DNA
  Time platinum adducts remain detectable post dose: up to 15 days
Patient PBMC samples, per L blood
  Median platinum adducts, equivalent per blood volume: 81.4 pg/L
patients
  Inter-individual variability on platinum adduct formation (RPT): 317%
Patients PBMCs
  Adduct formation, single-agent treatment at day 1 versus combination with talazoparib: no statistical difference
  KPT, formation rate of adducts from plasma: 0.0156 L/h
